US8703793B2, “Tricyclic pyridine derivatives, medicaments containing such compounds, their use and process for their preparation” (Boehringer Ingelheim International GmbH, priority 2008, dated 2014)

Target: T1, Recombinant human CETP (Homo sapiens, UniProt P11597)
T1 construct: made in house; host or cells: CHO cells (secreted into conditioned medium)
T1 sequence (P11597 18-493): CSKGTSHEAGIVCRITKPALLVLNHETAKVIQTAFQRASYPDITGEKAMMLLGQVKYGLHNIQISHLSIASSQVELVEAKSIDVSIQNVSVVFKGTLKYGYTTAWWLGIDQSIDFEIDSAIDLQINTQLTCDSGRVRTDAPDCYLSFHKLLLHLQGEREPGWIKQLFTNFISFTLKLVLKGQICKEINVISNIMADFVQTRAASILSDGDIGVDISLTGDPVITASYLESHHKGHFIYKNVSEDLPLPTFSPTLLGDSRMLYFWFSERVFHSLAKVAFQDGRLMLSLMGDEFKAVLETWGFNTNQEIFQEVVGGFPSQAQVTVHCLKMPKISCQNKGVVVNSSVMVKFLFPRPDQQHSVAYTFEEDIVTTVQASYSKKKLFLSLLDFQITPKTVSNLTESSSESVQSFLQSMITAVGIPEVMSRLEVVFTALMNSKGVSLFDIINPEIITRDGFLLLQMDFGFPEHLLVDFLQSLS
Assay: CETP Scintillation Proximity Assay
Format: biochemical
Settings: 3H-cholesteryl ester transfer from human HDL donor to biotin labelled LDL, over night at room temperature; read-out: IC50 values for CETP inhibitory activity
Procedure: CETP Scintillation Proximity Assay
Recombinant human CETP is partially purified from medium conditioned by CETP expressing CHO cells. In a 96 well homogeneous assay format CETP transfers ^3H-labelled cholesteryl esters from human HDL donor particles to biotin labelled LDL particles. Following over night incubation at room temperature the reaction is stopped by addition of streptavidin-coupled scintillation proximity assay (SPA) beads. These beads captured the biotinylated acceptor particles and the radioactivity is measured. The assay system is purchased and performed according to the manufacturer's recommendations (GE Healthcare).
Inhibitory activity of compounds is determined as percentage of positive control activity containing CETP together with donor and acceptor particles. Background activity is determined by adding buffer instead of CETP. Serial dilution of compound in buffer containing 10% DMSO is performed in order to determine the IC50 values.

| Compound | IC50 [µM] |
| --- | --- |
| CC1(C)Cc2nc3c(c(C4CCCC4)c2[C@@H](O)C1)[C@H](c1ccc(C(F)(F)F)cc1)OC31CCCC1 (single isomer, unassigned) [1 (10), (1′S,8′S)-9′-Cyclopentyl-6′,6′-dimethyl-1′-(4-(trifluoromethyl)phenyl)-5′,6′,7′,8′-tetrahydro-1′H-spiro[cyclopentane-1,3′-furo[3,4-b]quinolin]-8′-ol] | < 1 |
| CC1OC(c2ccc(C(F)(F)F)cc2)c2c1nc1c(c2C2CCCC2)[C@@H](O)CC(C)(C)C1 (single isomer, unassigned) [Diastereomer 3 of Example 1 (2)] | < 1 |
| CC1(C)Cc2nc3c(c(C4CCCC4)c2C(O)C1)C(c1ccc(C(F)(F)F)cc1)OC3(C)C (single isomer, unassigned) [Example 1 (4), 9-Cyclopentyl-3,3,6,6-tetramethyl-1-(4-trifluoromethyl-phenyl)-1,3,5,6,7,8-hexahydro-furo[3,4-b]quinolin-8-ol] | < 5 |
| CC1(C)Cc2nc3c(c(C4CCCC4)c2[C@@H](O)C1)C(c1ccc(C(F)(F)F)cc1)OC3(C)C (single isomer, unassigned) [Example 1 (5)] | < 1 |
| CC1OC(c2ccc(C(F)(F)F)cc2)c2c1nc1c(c2C2CCCCC2)[C@@H](O)CC(C)(C)C1 (single isomer, unassigned) [Example 1 (7)] | < 1 |
| CC1OC(c2ccc(C(F)(F)F)cc2)c2c1nc1c(c2C2CCCC2)[C@@H](O)CC(C)(C)C1 (single isomer, unassigned) [Example 1] | < 2 |

The next lines start with the values.

| IC50 [µM] | Compound |
| --- | --- |
| < 1 | CC1(C)Cc2nc3c(c(C4CCCC4)c2[C@@H](O)C1)[C@H](c1ccc(C(F)(F)F)cc1)OC31CCCCC1 (single isomer, unassigned) [1 (8), (1′S,8′S)-9′-Cyclopentyl-6′,6′-dimethyl-1′-(4-(trifluoromethyl)phenyl)-5′,6′,7′,8′-tetrahydro-1′H-spiro[cyclohexane-1,3′-furo[3,4-b]quinolin]-8′-ol] |
| < 20 | CC1(C)Cc2nc3c(c(C4CCCC4)c2[C@@H](O)C1)[C@@H](c1ccc(C(F)(F)F)cc1)OC31CCCCC1 (single isomer, unassigned) [1 (9), (1′R,8′S)-9′-Cyclopentyl-6′,6′-dimethyl-1′-(4-(trifluoromethyl)phenyl)-5′,6′,7′,8′-tetrahydro-1′H-spiro[cyclohexane-1,3′-furo[3,4-b]quinolin]-8′-ol] |
| < 20 | CC1(C)Cc2nc3c(c(C4CCCC4)c2[C@@H](O)C1)C(c1ccc(C(F)(F)F)cc1)OC3 (single isomer, unassigned) [Diastereomer 1 of Example 1 (3)] |
| < 2 | CC1OC(c2ccc(C(F)(F)F)cc2)c2c1nc1c(c2C2CCCC2)[C@@H](O)CC(C)(C)C1 (single isomer, unassigned) [Diastereomer 4 of Example 1 (2)] |
| < 2 | CC1OC(c2ccc(C(F)(F)F)cc2)c2c1nc1c(c2C2CCCC2)[C@@H](O)CC(C)(C)C1 (single isomer, unassigned) [Example 1 (1)] |
| < 20 | CC1(C)Cc2nc3c(c(C4CCCC4)c2[C@@H](O)C1)C(c1ccc(C(F)(F)F)cc1)OC3(C)C (single isomer, unassigned) [Example 1 (6)] |
| < 5 | CC1OC(c2ccc(C(C)(C)C)cc2)c2c1nc1c(c2C2CCCCC2)[C@@H](O)CC(C)(C)C1 (stereo partly drawn) [Example 2, 8-(S)-1-(4-tert-Butyl-phenyl)-9-cyclohexyl-3,6,6-trimethyl-1,3,5,6,7,8-hexahydro-furo[3,4b]quinolin-8-ol] |

Same assay, conditions: comparison among diastereomers of the same structure

| Compound | CETP inhibitory potency compared to the other diastereomers |
| --- | --- |
| CC1OC(c2ccc(C(F)(F)F)cc2)c2c1nc1c(c2C2CCCC2)[C@@H](O)CC(C)(C)C1 (single isomer, unassigned) [Diastereomer 3 of Example 1 (2)] | higher CETP inhibitory potency as compared to the other diastereomers |
| CC1(C)Cc2nc3c(c(C4CCCC4)c2[C@@H](O)C1)C(c1ccc(C(F)(F)F)cc1)OC3(C)C (single isomer, unassigned) [Example 1 (5)] | higher CETP inhibitory potency as compared to the other diastereomer |
